Each structure is given as a SMILES string. “Also recorded” adds a separate entry of the source.

The record followed here is patent publication US20250281449A1, “NITROGEN-CONTAINING ANALOGS OF SALINOMYCIN FOR USE IN MULTIPLE MYELOMA (MM)” (Centre National de la Recherche Scientifique, priority 2021, published 2025).

In one test the test system is XG2. As to the kind of experiment: Cell viability assay (Cell Titer-Glo), HMCL. The format is cell-based. Particulars: Homo sapiens, 96H. The protocol: (§1) The panel of 17 HMCL cell lines were incubated with increasing concentrations of Ironomycin (A), AM23 (B) or vehicle for 96H.
(§2) HMCL cell lines were cultured for 4 days in 96-well flat-bottom microtiter plates in RPMI 1640 medium or DMEM medium, 10% or 20% FCS (control medium) in the presence of various compounds. The number of viable cells in culture was determined using the Cell Titer-Glo Luminescent Cell Viability Assay from Promega, Madison, WI, USA using a Centro LB 960 luminometer (Berthold Technologies, Bad Wildbad, Germany).
(§3) This test is based on quantitation of the intracellular ATP present, which signals the presence of metabolically active cells. Data are expressed as the mean percentage of six replicates, normalized to the untreated control.
For orientation: In ATP-based viability assays light output follows the ATP content of the culture.

In another test the test system is XG6. As to the kind of experiment: Cell viability assay (Cell Titer-Glo), HMCL. The format is cell-based. Particulars: Homo sapiens; XG6 HMCL, 96H; read-out: IC50. The protocol:
as §1, §2, §3

In another test the test system is XG21. As to the kind of experiment: Cell viability assay (Cell Titer-Glo), HMCL. The format is cell-based. Particulars: Homo sapiens; XG21 HMCL, 96H; read-out: IC50. The protocol:
as §1, §2, §3

For a further test, the system named is L363. As to the kind of experiment: Cell viability assay (Cell Titer-Glo), HMCL. Particulars: Homo sapiens, L-363, 96H. The format is cell-based. The protocol: as §1, §2, §3
The next test has as its system OPM-2. As to the kind of experiment: Cell viability assay (Cell Titer-Glo), HMCL. To be noted: Homo sapiens; OPM-2 HMCL, 96H; read-out: IC50. It counts as cell-based. How it is done:
as §1, §2, §3

The next test deals with XG28. As to the kind of experiment: Cell viability assay (Cell Titer-Glo), HMCL. The format is cell-based. To be noted: Homo sapiens; XG28 HMCL, 96H; read-out: IC50. The protocol: as §1, §2, §3
Another test has as its system RPMI. As to the kind of experiment: Cell viability assay (Cell Titer-Glo), HMCL. It counts as cell-based. Particulars: Homo sapiens, 96H. How it is done: as §1, §2, §3
The next test has as its system XG-7. Nature of the test: Cell viability assay (Cell Titer-Glo), HMCL. Particulars: Homo sapiens; XG-7 HMCL, 96H; read-out: IC50. The format is cell-based. How it is done: as §1, §2, §3
The subject of another test is XG-19. As to the kind of experiment: Cell viability assay (Cell Titer-Glo), HMCL. It counts as cell-based. To be noted: Homo sapiens; XG-19 HMCL, 96H. How it is done:
as §1, §2, §3

The next test concerns XG12. As to the kind of experiment: Cell viability assay (Cell Titer-Glo), HMCL. The format is cell-based. Particulars: Homo sapiens; XG12 HMCL, 96H; read-out: IC50. How it is done: as §1, §2, §3
A further test deals with XG-1. As to the kind of experiment: Cell viability assay (Cell Titer-Glo), HMCL. The format is cell-based. To be noted: Homo sapiens; XG-1 HMCL, 96H; read-out: IC50. The protocol:
as §1, §2, §3

Another test concerns MOLP-8. Nature of the test: Cell viability assay (Cell Titer-Glo), HMCL. The format is cell-based. Particulars: Homo sapiens; MOLP-8 HMCL, 96H; read-out: IC50. The protocol: as §1, §2, §3
The next test relates to XG11. Nature of the test: Cell viability assay (Cell Titer-Glo), HMCL. It counts as cell-based. To be noted: Homo sapiens, 96H. The protocol: as §1, §2, §3
Another test relates to AMO-1. Nature of the test: Cell viability assay (Cell Titer-Glo), HMCL. To be noted: Homo sapiens, AMO1; AMO-1 HMCL, 96H. The format is cell-based. The protocol: as §1, §2, §3
The test system of a further test is XG20. As to the kind of experiment: Cell viability assay (Cell Titer-Glo), HMCL. It counts as cell-based. Particulars: Homo sapiens; XG20 HMCL, 96H; read-out: IC50. The protocol: as §1, §2, §3
The subject of a further test is XG24. Nature of the test: Cell viability assay (Cell Titer-Glo), HMCL. The format is cell-based. Particulars: Homo sapiens; XG24 HMCL, 96H; read-out: IC50. How it is done: as §1, §2, §3
For test [1], the system named is XG-1, XG-7 and OPM-2 cell lines. Nature of the test: Apoptosis induction (Annexin V staining or PARP-cleavage, flow cytometry). It counts as cell-based, human. To be noted: IC50 of ironomycin, 72H. How it is done:
XG-1, XG-7 and OPM-2 cell lines were treated with IC50 of ironomycin during 72H. Apoptosis induction was monitored by Annexin V staining (XG-1 and XG-7) or PARP-cleavage and analyzed by flow cytometry (A).
Annexin V-PE staining for apoptosis analysis was performed using the “PE Annexin V Apoptosis Detection Kit I” (559763, Becton Dickinson).
(§4) The cell cycle progression was studied by flow cytometry using the Apoptosis, DNA Damage, and Cell Proliferation Kit (562253, Becton Dickinson). Briefly, cells were labeled with bromodeoxyuridine (BrdU), an analog of the DNA precursor thymidine that can be incorporated into newly synthesized DNA and detected with an antibody against BrdU to measure cell proliferation. After this labeling, the cells were fixed, permeabilized and treated with DNase to expose the BrdU epitopes. Following this treatment, cells were simultaneously stained with fluorochrome-labeled anti-BrdU, anti-cleaved Poly A DP-ribose polymerase 1 (PARP), anti-H2AX phosphorylated at serine 139. They were also stained with DAPI to determine DNA content. Finally, cells were resuspended in staining buffer and analyzed by flow cytometry (Fortessa, Becton Dickinson).
(In general: A flow cytometer gives signals particle by particle.)

The test system of a further test is MM cell lines. As to the kind of experiment: Cell growth inhibition in panel of MM cell lines. The format is cell-based, human. To be noted: 96H. How it is done: as §1, §2, §3
The therapeutic interest of iron metabolism inhibitors AM5 (Ironomycin) and AM23 was further investigated using large collection of 18 MM cell lines (Moreaux J et al. Haematologica 2011; Vikova V et al. Theranostics 2019). The IC50 of Ironomycin and AM23 respectively are illustrated in the Table 5 hereunder: […]

For the next test, the system named is primary MM cells. As to the kind of experiment: Assay on primary MM cells of patients (flow cytometry). The format is cell-based, human. To be noted: n=5, with IL-6. How it is done:
Primary MM cells were treated with Ironomycin (A) or AM-23 (B) and incubated during 96H with IL-6. The toxicity on MM cells and non-MM cells was analyzed by flow cytometry and expressed in % of control.
Bone marrow samples were collected after patients' written informed consent in accordance with the Declaration of Helsinki and institutional research board approval from Montpellier University hospital. Cells are obtained from […] of 5 patients with MM. Cells are obtained by density gradient separation and qualified by Flow cytometry.
Cells are cultured in Gibco® RPMI-1640 (Glutamax) medium (#6187-010) with 10% FBS at a density of 0.5×10^6 Cell/mL with 2 ng/mL of interleukin-6. Cells are seeded 24H after thawing and treated with various compounds during 72H.
Total cells were counted with trypan blue and stained with the panel CD38-APC, CD138-PE (Beckman coulter) and analyzed by flow cytometry (Fortessa cytometer, BD Pharmigen). Tumorous MM cells were gated on CD38+ and CD138+.

Test [2] concerns XG-1, XG-7 and OPM-2 cells. As to the kind of experiment: Cell cycle analysis (BrdU incorporation/DAPI, flow cytometry). The format is cell-based, human. To be noted: IC50 Ironomycin, 72 hours. The protocol:
XG-1, XG-7 and OPM-2 cells were incubated with vehicle or with IC50 Ironomycin for 72 hours. Cell cycle was analyzed using flow cytometry, S phase was stained by an anti-BrdU antibody after BrdU incorporation and DNA content was strained by 4′,6-diamidino-2-phénylindole (DAPI). Histograms represent the mean percentage and SD of each cell cycle phase of three independent experiments. * and ** indicate a significant difference of P<0.05 and P<0.01, respectively with paired student t-test.
as §4

A word on the IC50: it is the point on the concentration scale where inhibition reaches its midpoint. As to `C#CCN[C@@H]1C=C[C@]2(O[C@H]([C@@H](CC)C(=O)[C@@H](C)[C@@H](O)[C@H](C)[C@@H]3O[C@@H]([C@@H](CC)C(=O)O)CC[C@@H]3C)[C@@H](C)C[C@H]2C)O[C@@]12CC[C@@](C)([C@H]1CC[C@](O)(CC)[C@H](C)O1)O2` [Ironomycin], the IC50 in the test with XG2 was determined as 24 nM; in the test with XG6, 26 nM; with XG21 it was 156 nM; in the test with L363 it was 13 nM; in the test with OPM-2 it was 36 nM; with XG28, 31 nM. Also, the IC50 in the test on RPMI worked out at 73 nM; in the test on XG-7 it was 52 nM; in the test with XG-19, 27 nM; in the test with XG12, 30 nM; in the test on XG-1, 239 nM; in the test with MOLP-8 it was 64.7 nM. For the same compound, the IC50 in the test with XG11 was 51 nM; in the test with AMO-1 it was 57 nM; in the test on XG20, 444 nM; in the test on XG24 it was 19 nM. Besides, the apoptosis induction entry in [1] is “induces apoptosis”. Further, the “cell growth inhibition / toxicity on MM cell lines” value with MM cell lines is “significant cell growth inhibition; also recorded: kill MM cells with nanomolar concentration”. Further, in the test with primary MM cells, the “toxicity on primary MM cells of patients” value is on record as “validated the therapeutic interest”. In addition, the “proliferation of MM cells (cell cycle)” value in test [2] is recorded as “inhibition of proliferation of MM cells”.
